Measured values: US11459323B2, “Monocyclic β-lactam compound for treating bacterial infection” (MEDSHINE DISCOVERY INC., priority 2018, dated 2022)
≈ marks a conversion by molar mass, not a printed value. Like-named read-outs stand apart in the source and are kept apart here.

What was measured:
[1] = tested on: Pseudomonas aeruginosa C761; test: MIC on clinically isolated bacteria; assay type: cell-based; settings: read-out: MIC
Summary of the method: (§1)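 Clinical strains were selected (twenty-five A. baumannii, twenty-seven P. aeruginosa), then compounds were serially diluted in liquid micro-dilution format following CLSI requirements to find the minimum inhibitory concentration.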

[2] = tested on: Acinetobacter baumannii C427; test: MIC on clinically isolated bacteria; assay type: cell-based; settings: Acinetobacter baumannii C427; read-out: Minimum Inhibitory Concentration (MIC)
Summary of the method: as §1

[3] = tested on: Pseudomonas aeruginosa M1; test: MIC on clinically isolated bacteria; assay type: cell-based; settings: read-out: MIC
Summary of the method: as §1

[4] = tested on: Acinetobacter baumannii C408; test: MIC on clinically isolated bacteria; assay type: cell-based; settings: Acinetobacter baumannii C408; read-out: Minimum Inhibitory Concentration (MIC)
Summary of the method: as §1

[5] = tested on: Pseudomonas aeruginosa C762; test: MIC on clinically isolated bacteria; assay type: cell-based
Summary of the method: as §1

[6] = tested on: Pseudomonas aeruginosa M4; test: MIC on clinically isolated bacteria; assay type: cell-based; settings: read-out: MIC
Summary of the method: as §1

[7] = tested on: Acinetobacter baumannii C315; test: MIC on clinically isolated bacteria; assay type: cell-based; settings: Acinetobacter baumannii C315; read-out: Minimum Inhibitory Concentration (MIC)
Summary of the method: as §1

[8] = tested on: Pseudomonas aeruginosa W23; test: MIC on clinically isolated bacteria; assay type: cell-based; settings: read-out: MIC
Summary of the method: as §1

[9] = tested on: Aeruginosa ATCC27853; test: MIC on clinically isolated bacteria; assay type: cell-based; settings: Pseudomonas aeruginosa; Aeruginosa ATCC27853; read-out: MIC
Summary of the method: as §1

[10] = tested on: Acinetobacter baumannii C395; test: MIC on clinically isolated bacteria; assay type: cell-based; settings: Acinetobacter baumannii C395; read-out: Minimum Inhibitory Concentration (MIC)
Summary of the method: as §1

[11] = tested on: Acinetobacter baumannii C283; test: MIC on clinically isolated bacteria; assay type: cell-based; settings: Acinetobacter baumannii C283; read-out: Minimum Inhibitory Concentration (MIC)
Summary of the method: as §1

[12] = tested on: Acinetobacter baumannii ATCC-BAA-1793; test: MIC on Acinetobacter baumannii strains; assay type: cell-based
From the text: (§2) Twelve strains of Acinetobacter baumannii, A. baumannii ATCC 17978 (ATCC-BAA-1605, ATCC-BAA-1789, ATCC-BAA-1790, ATCC-BAA-1791, ATCC-BAA-1792, ATCC-BAA-1793, ATCC-BAA-1794, ATCC-BAA-1795, ATCC-BAA-1799, ATCC-BAA-1800, ATCC 19606, ATCC 17978) were used to determine the minimum inhibitory concentration (MIC) of the compounds by micro-liquid dilution method according to the Institute of Clinical and Laboratory Standard (CLSI) requirements.

[13] = tested on: Acinetobacter baumannii ATCC-BAA-1800; test: MIC on Acinetobacter baumannii strains; assay type: cell-based
From the text: as §2

[14] = tested on: Acinetobacter baumannii ATCC-BAA-1605; test: MIC on Acinetobacter baumannii strains; assay type: cell-based
From the text: as §2

[15] = tested on: Acinetobacter baumannii ATCC-BAA-1789; test: MIC on Acinetobacter baumannii strains; assay type: cell-based; settings: ATCCBAA1789
From the text: as §2

[16] = tested on: Acinetobacter baumannii ATCC 19606; test: MIC on Acinetobacter baumannii strains; assay type: cell-based; settings: ATCC19606
From the text: as §2

[17] = tested on: Acinetobacter baumannii ATCC-BAA-1790; test: MIC on Acinetobacter baumannii strains; assay type: cell-based
From the text: as §2

[18] = tested on: Acinetobacter baumannii ATCC 17978; test: MIC on Acinetobacter baumannii strains; assay type: cell-based; settings: ATCC17978
From the text: as §2

[19] = tested on: Acinetobacter baumannii ATCC-BAA-1795; test: MIC on Acinetobacter baumannii strains; assay type: cell-based; settings: ATCCBAA1795
From the text: as §2

[20] = tested on: Acinetobacter baumannii ATCC-BAA-1792; test: MIC on Acinetobacter baumannii strains; assay type: cell-based
From the text: as §2

[21] = tested on: Acinetobacter baumannii ATCC-BAA-1791; test: MIC on Acinetobacter baumannii strains; assay type: cell-based; settings: ATCCBAA1791
From the text: as §2

[22] = tested on: Acinetobacter baumannii ATCC-BAA-1799; test: MIC on Acinetobacter baumannii strains; assay type: cell-based; settings: ATCCBAA1799
From the text: as §2

[23] = tested on: Acinetobacter baumannii ATCC-BAA-1794; test: MIC on Acinetobacter baumannii strains; assay type: cell-based
From the text: as §2

[24] = tested on: Pseudomonas aeruginosa PA14; test: Lungs of immunosuppressed mice infected with Pseudomonas aeruginosa (2), lung bacterial load; assay type: in vivo; settings: 24 hours after infection, day, ip at 2 h, 4 h, 6 h, 8 h
Procedure: Pseudomonas aeruginosa PA14. 60 mice were intraperitoneally injected with 150 mg/kg cyclophosphamide on day 1 and day 4 to give immunosuppressed mice. […] [table] The mice were injected with 50 μL of bacterial solution (2×10^3 CFU) through the airway. 2 hours after the infection, 4 mice in the model group was sacrificed by removing cervical vertebra. Two hours after infection, the drugs were administered by groups, and the mice were administered intraperitoneally once at 2 hours, 4 hours, 6 hours, and 8 hours, a total of 4 times. Mice of each group were sacrificed by removing cervical vertebra 24 hours after infection, lung and kidney tissues were taken aseptically and put into a sterilized tissue homogenate tube, weighed, and an appropriate amount of normal saline (NS) was added, the mixture was homogenized by a homogenizer for 1 min, the lung tissues of the model group were diluted 10^4, 10^5, 10^6 times, the lung tissues of each administration group were diluted 10, 100 times, the kidney tissues of the model group were diluted 10^2, 10^3, 10^4 times, and the lung tissues of each administration group were diluted 10 times, the obtained mixtures were coated on TSA plates using spiral coater, then incubated at 37° C. overnight, and the CFU was counted with a colony counter. Graphpad Prism mapping software was used to make scatter plots of lung tissue CFU. SPSS19.0 software was used to count CFU and average body weight, and analysis of variance was used to analyze differences between groups.

Row | MIC ([5]; read-out: MIC) [µg/mL] | MIC [10] [µg/mL] | Compound | MIC [1] [µg/mL] | MIC [2] [µg/mL] | MIC [3] [µg/mL] | MIC [4] [µg/mL] | MIC [6] [µg/mL] | MIC [7] [µg/mL] | MIC [8] [µg/mL] | MIC [9] [µg/mL] | MIC [11] [µg/mL] | MIC [15] [µg/mL] | MIC [16] [µg/mL] | MIC [18] [µg/mL] | MIC [19] [µg/mL] | MIC [21] [µg/mL] | MIC [22] [µg/mL] | also measured
1 | 16 (≈ 23.3 µM) | 8 (≈ 11.7 µM) | CC1(C)[C@H](NC(=O)/C(=N\O[C@@H](COc2ccc3c(c2)CN(C(=N)NOCCN)C3)C(=O)O)c2csc(N)n2)C(=O)N1OS(=O)(=O)O [Compound 43] | 2 (≈ 2.92 µM) | 16 (≈ 23.3 µM) | 1 (≈ 1.46 µM) | 8 (≈ 11.7 µM) | 0.25 (≈ 0.365 µM) | 8 (≈ 11.7 µM) | 1 (≈ 1.46 µM) | 1 (≈ 1.46 µM) | 8 (≈ 11.7 µM) |  |  |  |  |  |  | 
2 | 8 (≈ 11.3 µM) | 2 (≈ 2.82 µM) | CC1(C)[C@H](NC(=O)/C(=N\O[C@@H](COc2ccc3c(c2)CN(C(=N)N[C@@H]2CCCNC2)C3)C(=O)O)c2csc(N)n2)C(=O)N1OS(=O)(=O)O [Compound 41] | 1 (≈ 1.41 µM) | 4 (≈ 5.64 µM) | 1 (≈ 1.41 µM) | 2 (≈ 2.82 µM) | 0.5 (≈ 0.704 µM) | 2 (≈ 2.82 µM) | 0.5 (≈ 0.704 µM) | 0.5 (≈ 0.704 µM) | 2 (≈ 2.82 µM) |  |  |  |  |  |  | LOG10-of bacterial load ([24]; total dosage 20 mg/kg): 4.12 ± 1.50; LOG10-of bacterial load ([24]; total dosage 60 mg/kg): 3.65 ± 2.15

Row | Compound | MIC ([5]; read-out: MIC) [µg/mL] | MIC [10] [µg/mL] | MIC [1] [µg/mL] | MIC [2] [µg/mL] | MIC [3] [µg/mL] | MIC [4] [µg/mL] | MIC [6] [µg/mL] | MIC [7] [µg/mL] | MIC [8] [µg/mL] | MIC [9] [µg/mL] | MIC [11] [µg/mL] | MIC [15] [µg/mL] | MIC [16] [µg/mL] | MIC [18] [µg/mL] | MIC [19] [µg/mL] | MIC [21] [µg/mL] | MIC [22] [µg/mL] | also measured
3 | C[C@@H](O)[C@H]1C(=O)N2C(C(=O)O)=C(S[C@@H]3CN[C@H](C(=O)N(C)C)C3)[C@H](C)[C@H]12 [Meropenem, reference compound] | 32 (≈ 83.4 µM) |  | < 0.25 | 64 (≈ 167 µM) | 4 (≈ 10.4 µM) | 128 (≈ 334 µM) | 0.5 (≈ 1.3 µM) | 64 (≈ 167 µM) | 16 (≈ 41.7 µM) | < 0.25 | 64 (≈ 167 µM) | 64 (≈ 167 µM) | 2 (≈ 5.22 µM) | 0.5 (≈ 1.3 µM) | 4 (≈ 10.4 µM) | 64 (≈ 167 µM) | 128 (≈ 334 µM) | MIC ([12]; ATCCBAA1793): > 128 µg/mL; MIC ([13]; ATCCBAA1800): > 128 µg/mL; MIC ([14]; ATCCBAA1605, ATCC-BAA-1605, read-out: MIC): 64 µg/mL (≈ 167 µM); MIC ([17]; ATCCBAA1790): 128 µg/mL (≈ 334 µM); MIC ([20]; ATCCBAA1792): 128 µg/mL (≈ 334 µM); MIC ([23]; ATCCBAA1794): > 128 µg/mL
4 | C[C@H]1[C@H](NC(=O)/C(=N\OC(C)(C)C(=O)O)c2csc(N)n2)C(=O)N1S(=O)(=O)O [Aztreonam, reference compound] |  | 32 (≈ 73.5 µM) | 8 (≈ 18.4 µM) | 64 (≈ 147 µM) | 8 (≈ 18.4 µM) | 32 (≈ 73.5 µM) | < 0.25 | 64 (≈ 147 µM) | 16 (≈ 36.7 µM) | 2 (≈ 4.59 µM) | 64 (≈ 147 µM) | 64 (≈ 147 µM) | 32 (≈ 73.5 µM) | 32 (≈ 73.5 µM) | 32 (≈ 73.5 µM) | 32 (≈ 73.5 µM) | 128 (≈ 294 µM) | MIC [5]: 128 µg/mL (≈ 294 µM); LOG10-of bacterial load ([24]; total dosage 100 mg/kg): 6.91 ± 1.63; MIC ([12]; ATCCBAA1793, ATCC-BAA-1793, read-out: MIC): 64 µg/mL (≈ 147 µM); MIC ([13]; ATCCBAA1800, ATCC-BAA-1800, read-out: MIC): 32 µg/mL (≈ 73.5 µM); MIC ([14]; ATCCBAA1605): 128 µg/mL (≈ 294 µM); MIC ([17]; ATCCBAA1790, ATCC-BAA-1790, read-out: MIC): 32 µg/mL (≈ 73.5 µM); MIC ([20]; ATCCBAA1792, ATCC-BAA-1792, read-out: MIC): 64 µg/mL (≈ 147 µM); MIC ([23]; ATCCBAA1794, ATCC-BAA-1794, read-out: MIC): 32 µg/mL (≈ 73.5 µM)
